For orientation: mass density means the mass of a sample divided by its volume.

Numbers after ± are expanded uncertainties.

For this series the following is noted: 298.15 K; 101.33 kPa; Liquid.
`CCCO` [propan-1-ol]: the mass density was determined as 799.74 ± 0.49 kg/m3.
The figure for `BrCBr` [dibromomethane] is 2478.36 ± 3.1 kg/m3; for `ClCBr` [bromochloromethane] it is 1924.55 ± 1.9 kg/m3.
As to `ClCCBr` [1-bromo-2-chloroethane], the mass density is 1727.01 ± 2.2 kg/m3.
The figure for `ClCCCl` [1,2-dichloroethane] is 1246.34 ± 0.6 kg/m3.

Source of the values: the NIST ThermoML archive (doi:10.1016/j.jct.2004.07.012).
